Columns and labels:
[1] = biological target: T1, Keap1 (Homo sapiens, UniProt Q14145); test: WB of Keap1 in OCI-AML2 cells (soluble/insoluble phase); type: cell-based; design: endogenous in cells; host or cells: OCI-AML2
Procedure: Cells were incubated with DMSO at 0.1% or with compound in concentrations ranging 10–20,000 nM for 20 h unless indicated differently. Following incubation, lysis was performed in RIPA buffer and the samples were measured for total protein quantification by BCA assay (Thermo Fisher Scientific, 23225). Then, 20–40 μg of each sample was loaded and run on an SDS–PAGE gel, before transferring onto a nitrocellulose membrane using a Trans-Blot Turbo system (Bio-Rad) and blocking using a 5% BSA in TBS-T (w/v) solution for 1 h at room temperature. Incubation with primary antibodies (mouse anti-BCL-6 (sc-7388, Santa Cruz, 1:500; overnight at 4 °C), mouse anti-Keap1 (sc-365626, Santa Cruz, 1:500; overnight at 4 °C), rabbit anti-LDHA (4H18L6, Thermo Fisher, 1:1,000; overnight at 4 °C), mouse anti-NQO2 (sc-271665, Santa Cruz, 1:500; overnight at 4 °C), rabbit anti-c-Myc (5605, Cell Signaling, 1:1,000; overnight at 4 °C) and mouse anti-β-actin (3700, Cell Signaling, 1:1,000; 1 h at room temperature) was performed and then the membranes were washed and incubated with a horseradish-peroxidase-conjugated secondary antibody (mouse 7076/rabbit 7074, Cell Signaling) at room temperature for 1 h. Imaging of the chemiluminescence signal was performed using a ChemiDoc XRS+ instrument (Bio-Rad). Primary band quantifications were normalized against β-actin bands.

[2] = tested on: Ramos cells; test: Viability measurements, Ramos cells; type: cell-based; settings: Ramos, 72 h
Procedure: Cells were seeded in a transparent-bottom, black 96-well plate, at 15,000 cells per well in sixfold replications. in 90 µl of medium and left to adhere for at least 4 h. The cells were then treated with the respective compound by adding 10 µl of medium–-compound mixture for a final volume of 100 µl in each well. Cell-Titer blue reagent was used to measure viability according to the manufacturer’s instructions. Plate reader measurements were performed on a Tecan Spark Control 10 M fluorescence system.

[3] = biological target: T1, Keap1; test: Global proteomics of soluble lysate of U2OS cells; type: cell-based; settings: EL133 250 nM, 20 h, RIPA lysis, relative to control
Procedure: Cells were incubated with DMSO at 0.1% or with compound for 20 h unless indicated differently, in quadruplicate. […] Samples were then reduced using DTT, followed by reaction with iodoacetamide. The labeled proteins were then precipitated on a dispersion of glass beads, followed by overnight trypsin digestion and purification of peptides. Samples were analyzed using an EASY-nLC 1200 nano-flow ultrahigh-performance LC system, equipped with a PepMap RSLC C18 column (particle size: 2 µm, pore size: 100 Å, diameter: 75 µm, length: 50 cm), mounted using an EASY-Spray source onto an Exploris 240 MS instrument. LC–MS-grade solvents were used for all chromatographic steps at 300 nl min^−1. The mobile phase consisted of solvent A (H2O + 0.1% formic acid) and solvent B (80% acetonitrile + 0.1% formic acid). Peptides were eluted from the column into the MS instrument using the following gradient: 1–40% B in 160 min, 40–100% B in 5 min, maintained at 100% for 20 min, 100–1% in 10 min and finally 1% for 5 min. […] Initially, data were acquired in data-independent acquisition mode. […] Four samples were analyzed per condition.
Data analysis was performed using Fragpipe[87],[88] […] Label-free quantification was performed using DIANN. After analysis, the quantified protein file was analyzed using Perseus[89]. […] Differences and P values were calculated using a double-sided Student’s t-test. […]

[4] = biological target: T2, recombinant Keap1 BTB (Homo sapiens, UniProt Q14145, S172A); test: In vitro crosslinking of Keap1 BTB using GA; type: biochemical; settings: 50 µM Keap1, 50 µM compound
T2 construct: The Keap1 BTB domain (48–180) encoding the single substitution S172A was cloned into pET28-bdSumo vector; His–bdSumo (N, cleaved yes); made in house; host or cells: E. coli BL21(DE3)
T2 sequence (Q14145 48-180 S172A): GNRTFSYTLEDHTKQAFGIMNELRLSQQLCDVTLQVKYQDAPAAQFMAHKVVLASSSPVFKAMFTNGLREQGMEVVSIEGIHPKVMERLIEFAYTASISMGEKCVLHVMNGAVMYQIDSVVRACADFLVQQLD
Procedure: Recombinant Keap1 samples were incubated at room temperature in desired conditions in a buffer containing 25 mM HEPES, 150 mM NaCl pH 8, 1 mM TCEP and 0.01% Tween. At the selected time point, each sample was treated with a 7.5% aqueous solution of GA (prepared fresh) for a final GA concentration of 0.125% and mixed gently. The crosslinking reaction was left at room temperature for 40 min, followed by addition of NuPage gel sample buffer with 20 mM DTT and boiling at 95 °C for 5 min. Lastly, 2–3 μg of each sample was loaded and run on an SDS–PAGE gel. Bands were visualized using a Coomassie blue solution.

T1 sequence (Q14145 whole entry): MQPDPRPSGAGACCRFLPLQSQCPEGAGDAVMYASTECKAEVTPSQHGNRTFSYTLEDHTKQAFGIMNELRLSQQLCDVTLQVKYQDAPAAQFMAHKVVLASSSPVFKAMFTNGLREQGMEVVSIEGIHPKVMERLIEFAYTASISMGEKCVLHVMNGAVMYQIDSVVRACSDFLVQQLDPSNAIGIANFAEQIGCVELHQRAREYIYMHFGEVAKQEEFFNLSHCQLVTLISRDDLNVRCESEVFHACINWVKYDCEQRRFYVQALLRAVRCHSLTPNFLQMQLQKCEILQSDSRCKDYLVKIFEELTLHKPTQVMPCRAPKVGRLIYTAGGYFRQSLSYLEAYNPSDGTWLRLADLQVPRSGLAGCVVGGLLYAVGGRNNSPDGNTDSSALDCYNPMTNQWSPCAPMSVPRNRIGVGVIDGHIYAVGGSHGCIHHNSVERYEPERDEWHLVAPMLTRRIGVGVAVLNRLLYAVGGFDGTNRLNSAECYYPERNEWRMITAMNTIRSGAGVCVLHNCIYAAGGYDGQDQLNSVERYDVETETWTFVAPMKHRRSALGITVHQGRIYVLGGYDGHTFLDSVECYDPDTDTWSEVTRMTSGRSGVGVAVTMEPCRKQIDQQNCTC

## CC1(C)CCC2(C(=O)NCCOCCOCCNC(=O)C34CCC(C)(C)CC3C3C(=O)C=C5C6(C)C=C(C#N)C(=O)C(C)(C)C6CCC5(C)C3(C)CC4)CCC3(C)C(C(=O)C=C4C5(C)C=C(C#N)C(=O)C(C)(C)C5CCC43C)C2C1 (stereo not shown) [EL133]
[1]; OCI-AML2, 500 nM EL133 or 2.5 µM EL256 for 20 h, then washout
  Keap1 in insoluble phase after washout (WB): remained accumulated in the insoluble phase for up to the 96 h
[1]; OCI-AML2, 1 h pretreatment, then compound 7 h
  rescue of Keap1 downregulation by MLN-4924 or bortezomib pretreatment: did not rescue Keap1 downregulation
[1]; OCI-AML2 cells
  concentration at which Keap1 accumulates in the insoluble phase (as low as): 500 nM
[1]; OCI-AML2 cells, 20 h treatment, read-out: EC50 (Keap1 downregulation, WB)
  EC50: 0.102 µM
[2]
  additional viability loss compared with BDX: no additional viability loss
[3]
  Keap1 level in soluble fraction (quantitative proteomics): significantly downregulated
[4]
  higher-order assemblies after GA crosslinking (SDS–PAGE): induced the formation of higher-order assemblies

Reference: paper PMC13503280, “A pharmacological modality to sequester homomeric proteins” (Nature Chemical Biology, 2026)
